Data from publication PMC6199744, “Development of Chemical Proteomics for the Folateome and Analysis of the Kinetoplastid Folateome” (ACS Infectious Diseases, 2018).
Like-named read-outs stand apart in the source and are kept apart here.

Legend:
Type in all cases: binding
[1] = molecular target: T1, HeLa cell extract proteins (Homo sapiens, UniProt Q13011)
T1 construct: endogenous in cells; host or cells: HeLa cell extract
T1 sequence (Q13011 34-328): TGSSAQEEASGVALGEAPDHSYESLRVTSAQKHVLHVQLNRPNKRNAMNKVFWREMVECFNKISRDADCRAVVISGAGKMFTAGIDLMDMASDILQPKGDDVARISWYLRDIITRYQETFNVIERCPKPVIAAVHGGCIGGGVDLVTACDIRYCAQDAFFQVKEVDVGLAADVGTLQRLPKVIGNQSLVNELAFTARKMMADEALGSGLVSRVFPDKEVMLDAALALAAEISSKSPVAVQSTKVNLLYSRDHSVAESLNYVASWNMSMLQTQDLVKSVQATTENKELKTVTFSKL

[2] = molecular target: T2, HeLa cell extract proteins (Homo sapiens, UniProt Q15293)
T2 construct: endogenous in cells; host or cells: HeLa cell extract
T2 sequence (Q15293 30-331): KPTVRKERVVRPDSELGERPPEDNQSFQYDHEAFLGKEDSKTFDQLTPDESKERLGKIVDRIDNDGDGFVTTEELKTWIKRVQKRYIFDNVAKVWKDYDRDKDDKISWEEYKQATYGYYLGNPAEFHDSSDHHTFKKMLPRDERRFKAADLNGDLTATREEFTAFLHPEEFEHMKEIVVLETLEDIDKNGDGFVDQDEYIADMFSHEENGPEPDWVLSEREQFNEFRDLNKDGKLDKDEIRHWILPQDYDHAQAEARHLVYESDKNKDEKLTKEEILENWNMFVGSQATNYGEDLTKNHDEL

[3] = molecular target: T3, HeLa cell extract proteins (Homo sapiens, UniProt Q16881)
T3 construct: endogenous in cells; host or cells: HeLa cell extract
T3 sequence (Q16881 1-649): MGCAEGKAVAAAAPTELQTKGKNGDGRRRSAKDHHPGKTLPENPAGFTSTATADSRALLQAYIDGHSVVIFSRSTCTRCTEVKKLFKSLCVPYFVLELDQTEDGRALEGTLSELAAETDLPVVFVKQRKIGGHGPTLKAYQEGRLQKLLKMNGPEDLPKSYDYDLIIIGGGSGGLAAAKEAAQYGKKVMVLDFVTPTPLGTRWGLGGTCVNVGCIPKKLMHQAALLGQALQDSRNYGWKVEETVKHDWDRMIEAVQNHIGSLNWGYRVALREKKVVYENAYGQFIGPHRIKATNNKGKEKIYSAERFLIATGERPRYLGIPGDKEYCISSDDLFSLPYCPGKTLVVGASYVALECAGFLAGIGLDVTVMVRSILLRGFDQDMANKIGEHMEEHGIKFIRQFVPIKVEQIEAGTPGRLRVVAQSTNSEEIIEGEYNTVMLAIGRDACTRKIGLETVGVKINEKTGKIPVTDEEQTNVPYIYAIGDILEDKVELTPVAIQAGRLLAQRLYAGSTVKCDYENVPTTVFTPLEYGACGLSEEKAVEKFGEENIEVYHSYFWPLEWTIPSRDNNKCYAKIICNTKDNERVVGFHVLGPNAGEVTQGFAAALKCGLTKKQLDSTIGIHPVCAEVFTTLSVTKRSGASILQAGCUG

[4] = molecular target: T4, HeLa cell extract proteins (Homo sapiens, UniProt Q9Y573)
T4 construct: endogenous in cells; host or cells: HeLa cell extract
T4 sequence (Q9Y573 1-584): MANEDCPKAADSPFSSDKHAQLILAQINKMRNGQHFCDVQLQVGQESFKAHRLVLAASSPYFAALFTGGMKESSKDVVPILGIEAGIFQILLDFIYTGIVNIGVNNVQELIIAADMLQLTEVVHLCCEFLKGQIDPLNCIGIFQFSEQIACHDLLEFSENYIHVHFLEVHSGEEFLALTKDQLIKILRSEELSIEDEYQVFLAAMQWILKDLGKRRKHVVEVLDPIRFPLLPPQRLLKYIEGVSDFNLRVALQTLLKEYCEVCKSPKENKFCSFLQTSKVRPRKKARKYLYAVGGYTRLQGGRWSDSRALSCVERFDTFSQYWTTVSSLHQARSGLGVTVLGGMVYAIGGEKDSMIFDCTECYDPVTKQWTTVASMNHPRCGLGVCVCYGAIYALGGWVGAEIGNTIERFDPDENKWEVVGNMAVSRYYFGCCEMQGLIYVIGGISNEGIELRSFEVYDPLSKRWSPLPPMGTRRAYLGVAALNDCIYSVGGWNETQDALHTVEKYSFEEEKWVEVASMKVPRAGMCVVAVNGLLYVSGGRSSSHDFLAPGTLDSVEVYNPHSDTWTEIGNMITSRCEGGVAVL

[5] = HeLa, protein IPP (ACTIN-BINDING PROTEIN IPP)

Structure (SMILES) | fold changes relative to vehicle control ([1]; HeLa, protein ECH1) | fold changes relative to vehicle control ([2]; HeLa, protein RCN1) | fold changes relative to vehicle control ([3]; HeLa, captured protein TXNRD1) | fold changes relative to vehicle control [4, 5] | fold changes relative to vehicle control [1] | fold changes relative to vehicle control [2] | fold changes relative to vehicle control [3] | fold changes relative to vehicle control [4] | fold changes relative to vehicle control ([2]; captured protein RCN1, HeLa) | fold changes relative to vehicle control ([3]; protein TXNRD1, HeLa) | fold changes relative to vehicle control ([4]; protein IPP, HeLa)
Nc1nc2c(c(=O)[nH]1)N(C=O)C(CNc1ccc(C(=O)N[C@@H](CCC(=O)O)C(=O)O)cc1)CN2 (stereo partly shown) [LEU, leucovorin] | 1.04 | 0.91 | 1.18 | 0.99 |  |  |  |  |  |  | 
Nc1nc2[nH]cc(CCc3ccc(C(=O)N[C@@H](CCC(=O)O)C(=O)O)cc3)c2c(=O)[nH]1 [PTX, pemetrexed] |  |  |  |  | 1.01 | 1.02 | 1.16 | 0.92 |  |  | 
CCCCCCOc1ccc(Cc2cnc(N)nc2N)cc1 [compound 1] | 0.95 |  |  |  |  |  |  |  | 0.9 | 1.27 | 1.03
CCCCCCOc1cccc(Cc2cnc(N)nc2N)c1 [compound 2] | 0.91 |  |  |  |  |  |  |  | 1.05 | 1.44 | 1.05
Nc1nc2cccc(-c3ccccc3)c2n1Cc1ccc(Cl)c(Cl)c1 [compound 3] | 1 |  |  |  |  |  |  |  | 0.89 | 1.05 | 0.93
NCCOCCOCC(=O)Nc1nc2ncc(CNc3ccc(C(=O)NC(CCC(=O)O)C(=O)O)cc3)nc2c(=O)[nH]1 (stereo not shown) [compound 6] | 0.96 | 1.11 | 1.16 | 0.89 |  |  |  |  |  |  | 
NCCCNc1ccc(C(=O)NC(CCC(=O)O)C(=O)O)cc1 (stereo not shown) [compound 7] | 0.99 | 1.02 | 1.11 | 0.9 |  |  |  |  |  |  | 
